Laboratory results from patent publication US9156845B2, “4-(substituted amino)-7H-pyrrolo[2,3-d] pyrimidines as LRRK2 inhibitors” (Pfizer Inc., priority 2012, dated 2015).

What was measured:
[1] = molecular target: GST-tagged truncated LRRK2 (Homo sapiens (Human), UniProt Q5S007); assay: LRRK2 Lantha Screen kinase assay; assay type: biochemical; settings: geometric mean of 2-5 determinations unless otherwise indicated (a: >=6 determinations; b: single determination); read-out: LRRK2 WT IC50
mutant G2019S LRRK2 = mutant G2019S LRRK2 (Homo sapiens (Human), UniProt Q5S007, G2019S); assay: LRRK2 Lantha Screen kinase assay, mutant enzyme; assay type: biochemical; settings: geometric mean of 2-5 determinations unless otherwise indicated (a: >=6 determinations; b: single determination)
mutant G2019S LRRK2, sequence (Q5S007 970-2527 G2019S): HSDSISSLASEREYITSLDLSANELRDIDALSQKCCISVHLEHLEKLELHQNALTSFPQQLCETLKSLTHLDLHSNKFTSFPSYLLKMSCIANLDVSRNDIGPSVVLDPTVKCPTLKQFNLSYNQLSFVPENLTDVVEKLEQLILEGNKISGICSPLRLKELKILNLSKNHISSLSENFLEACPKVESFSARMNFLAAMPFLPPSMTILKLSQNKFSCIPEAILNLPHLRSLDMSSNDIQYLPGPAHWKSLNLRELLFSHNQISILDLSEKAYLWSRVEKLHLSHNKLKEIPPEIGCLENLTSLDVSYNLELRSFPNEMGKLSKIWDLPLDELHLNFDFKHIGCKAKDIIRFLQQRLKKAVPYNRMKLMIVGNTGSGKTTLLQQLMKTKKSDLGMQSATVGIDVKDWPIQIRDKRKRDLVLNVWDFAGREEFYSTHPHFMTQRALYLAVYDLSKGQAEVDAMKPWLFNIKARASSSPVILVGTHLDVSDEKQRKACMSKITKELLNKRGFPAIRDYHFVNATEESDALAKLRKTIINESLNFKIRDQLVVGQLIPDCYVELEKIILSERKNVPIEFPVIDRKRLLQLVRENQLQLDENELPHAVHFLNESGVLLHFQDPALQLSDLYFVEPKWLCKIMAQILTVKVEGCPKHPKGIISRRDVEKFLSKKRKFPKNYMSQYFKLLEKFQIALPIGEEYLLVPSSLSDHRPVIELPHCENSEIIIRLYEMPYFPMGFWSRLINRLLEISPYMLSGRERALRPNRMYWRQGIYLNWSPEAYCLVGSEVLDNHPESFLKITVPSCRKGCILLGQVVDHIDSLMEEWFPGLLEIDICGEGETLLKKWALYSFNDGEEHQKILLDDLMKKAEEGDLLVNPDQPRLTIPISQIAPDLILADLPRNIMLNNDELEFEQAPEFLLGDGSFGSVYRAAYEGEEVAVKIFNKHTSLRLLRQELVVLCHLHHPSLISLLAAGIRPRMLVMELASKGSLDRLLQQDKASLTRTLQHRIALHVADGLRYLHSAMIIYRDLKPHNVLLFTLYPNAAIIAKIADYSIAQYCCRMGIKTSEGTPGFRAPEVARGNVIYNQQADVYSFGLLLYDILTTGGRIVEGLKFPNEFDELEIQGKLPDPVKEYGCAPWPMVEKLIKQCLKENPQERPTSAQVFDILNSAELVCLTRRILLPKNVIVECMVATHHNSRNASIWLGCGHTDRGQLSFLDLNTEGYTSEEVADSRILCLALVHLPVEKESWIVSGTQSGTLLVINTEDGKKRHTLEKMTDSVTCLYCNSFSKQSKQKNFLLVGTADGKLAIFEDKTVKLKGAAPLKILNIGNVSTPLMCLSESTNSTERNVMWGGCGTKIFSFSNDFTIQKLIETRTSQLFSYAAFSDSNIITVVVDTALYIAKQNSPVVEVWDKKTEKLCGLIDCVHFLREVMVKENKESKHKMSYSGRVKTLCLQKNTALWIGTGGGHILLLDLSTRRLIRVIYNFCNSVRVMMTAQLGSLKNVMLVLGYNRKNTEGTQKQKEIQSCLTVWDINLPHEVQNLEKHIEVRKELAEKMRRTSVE

GST-tagged truncated LRRK2, sequence (Q5S007 970-2527): as the sequence (Q5S007 970-2527 G2019S) above, with S1050G counted along it

| SMILES | IC50 [1] [µM] | IC50 (mutant G2019S LRRK2) [µM] |
| --- | --- | --- |
| C[C@H]1CCCN(c2ncnc3[nH]cc(-c4cccc(CO)c4)c23)C1 [Example 7, (3-{4-[(3S)-3-Methylpiperidin-1-yl]-7H-pyrrolo[2,3-d]pyrimidin-5-yl}phenyl)methanol] | 0.018 | 0.018 |
| COc1cc(C#N)cc(-c2c[nH]c3ncnc(N(C)C)c23)c1 [Example 147, 3-[4-(dimethylamino)-7H-pyrrolo[2,3-d]pyrimidin-5-yl]-5-methoxybenzonitrile] | 0.037 | 0.093 |
| Cc1cncc(-c2c[nH]c3ncnc(N4CCO[C@@H](C)C4)c23)c1 [Example 169, 4-[(2S)-2-methylmorpholin-4-yl]-5-(5-methylpyridin-3-yl)-7H-pyrrolo[2,3-d]pyrimidin] | 0.099 | 0.28 |
| C[C@H]1CCCN(c2ncnc3[nH]cc(-c4cccc(C(N)=O)c4)c23)C1 [Example 60, 3-{4-[(3S)-3-methylpiperidin-1-yl]-7H-pyrrolo[2,3-d]pyrimidin-5-yl}benzamide] | 0.086 | 0.058 |
| C[C@@H]1CN(c2ncnc3[nH]cc(-c4cccc(C#N)c4)c23)CCO1 [Example 79, 3-{4-[(2R)-2-methylmorpholin-4-yl]-7H-pyrrolo[2,3-d]pyrimidin-5-yl}benzonitrile] | 0.018 | 0.069 |
| c1cnc2c(-c3c[nH]c4ncnc(N5CCOCC5)c34)cnn2c1 [Example 216, 4-(morpholin-4-yl)-5-(pyrazolo[1,5-a]pyrimidin-3-yl)-7H-pyrrolo[2,3-d]pyrimidine] | 0.0356 | 0.119 |
| COCC1CN(c2ncnc3[nH]cc(-c4cccc(C#N)c4)c23)CCO1 (single isomer, unassigned) [Example 197] | 0.214 | 0.245 |
| Cn1cc(-c2c[nH]c3ncnc(N4CCCC(O)C4)c23)cn1 (stereo not shown) [Example 120, 1-[5-(1-methyl-1H-pyrazol-4-yl)-7H-pyrrolo[2,3-d]pyrimidin-4-yl]piperidin-3-ol] | 0.044 | 0.034 |
| CN(C)c1ncnc2[nH]cc(-c3cccc(C#N)c3F)c12 [Example 69, 3-[4-(dimethylamino)-7H-pyrrolo[2,3-d]pyrimidin-5-yl]-2-fluorobenzonitrile] | 0.006 | 0.017 |
| N#Cc1cccc(-c2c[nH]c3ncnc(N4CCCC(C#N)C4)c23)c1 (stereo not shown) [Example 21, 1-[5-(3-cyanophenyl)-7H-pyrrolo[2,3-d]pyrimidin-4-yl]piperidine-3-carbonitrile] | 0.057 | 0.183 |
| N#Cc1cccc(-c2c[nH]c3ncnc(N4CCOC(Cc5noc(C(F)F)n5)C4)c23)c1 (stereo not shown) [Example 130, 3-[4-(2-{[5-(difluoromethyl)-1,2,4-oxadiazol-3-yl]methyl}morpholin-4-yl)-7H-pyrrolo[2,3-d]pyrimidin-5-yl]benzonitrile] | 0.044 | 0.134 |
| N#Cc1cccc(-c2c[nH]c3ncnc(N4CCOC(c5cccc(O)c5)C4)c23)c1 (stereo not shown) [Example 134, 3-{4-[2-(3-hydroxyphenyl)morpholin-4-yl]-7H-pyrrolo[2,3-d]pyrimidin-5-yl}benzonitrile] | 0.091 | 0.281 |
| COc1cccc(-c2c[nH]c3ncnc(N4CCOCC4)c23)c1 [Example 97, 5-(3-methoxyphenyl)-4-(morpholin-4-yl)-7H-pyrrolo[2,3-d]pyrimidine] | 0.028 | 0.046 |
| COc1cccc(F)c1-c1c[nH]c2ncnc(N(C)C)c12 [Example 189, 5-(2-fluoro-6-methoxyphenyl)-N,N-dimethyl-7H-pyrrolo[2,3-d]pyrimidin-4-amine] | 0.04 | 0.027 |
| Cc1cncc(-c2c[nH]c3ncnc(N4CCOCC4)c23)c1 [Example 149, 5-(5-methylpyridin-3-yl)-4-(morpholin-4-yl)-7H-pyrrolo[2,3-d]pyrimidine] | 0.018 | 0.03 |
| C[C@H]1CCCN(c2ncnc3[nH]cc(-c4ccccc4)c23)C1 [Example 15, 4-[(3S)-3-methylpiperidin-1-yl]-5-phenyl-7H-pyrrolo[2,3-d]pyrimidine] | 0.091 | 0.092 |
| CN(c1ncnc2[nH]cc(-c3cnn(C)c3)c12)C1CC1 [Example 127, N-cyclopropyl-N-methyl-5-(1-methyl-1H-pyrazol-4-yl)-7H-pyrrolo[2,3-d]pyrimidin-4-amine] | 0.037 | 0.037 |
| N#Cc1cccc(-c2c[nH]c3ncnc(N4CCOC(c5ccncn5)C4)c23)c1 (stereo not shown) [Example 141, 3-{4-[2-(pyrimidin-4-yl)morpholin-4-yl]-7H-pyrrolo[2,3-d]pyrimidin-5-yl}benzonitrile] | 0.079 | 0.193 |
| CN(C)c1ncnc2[nH]cc(-c3ccccc3)c12 [Example 68, N,N-dimethyl-5-phenyl-7H-pyrrolo[2,3-d]pyrimidin-4-amine] | 0.063 | 0.039 |
| N#Cc1cccc(-c2c[nH]c3ncnc(N4CCC(F)CC4)c23)c1 [Example 33A, 3-[4-(4-fluoropiperidin-1-yl)-7H-pyrrolo[2,3-d]pyrimidin-5-yl]benzonitrile] | 0.017 | 0.056 |
| COc1cc(F)cc(-c2c[nH]c3ncnc(N4CCCC(O)C4)c23)c1 (stereo not shown) [Example 164, 1-[5-(3-fluoro-5-methoxyphenyl)-7H-pyrrolo[2,3-d]pyrimidin-4-yl]piperidin-3-ol] | 0.029 | 0.038 |
| Fc1cccc(-c2c[nH]c3ncnc(N4CCOCC4)c23)c1F [Example 87, 5-(2,3-difluorophenyl)-4-(morpholin-4-yl)-7H-pyrrolo[2,3-d]pyrimidine] | 0.012 | 0.024 |
| Cc1[nH]c2ncnc(N3CCOCC3)c2c1-c1cnn(C)c1 [Example 117, 6-methyl-5-(1-methyl-1H-pyrazol-4-yl)-4-(morpholin-4-yl)-7H-pyrrolo[2,3-d]pyrimidine] | 0.047 | 0.089 |
| N#Cc1cccc(-c2c[nH]c3ncnc(N4CCCC5(CNC(=O)C5)C4)c23)c1 (stereo not shown) [Example 40, 3-[4-(3-oxo-2,7-diazaspiro[4.5]dec-7-yl)-7H-pyrrolo[2,3-d]pyrimidin-5-yl]benzonitrile] | 0.035 | 0.119 |
| N#Cc1cccc(-c2c[nH]c3ncnc(N4CC[C@H](F)C4)c23)c1 [Example 35, 3-{4-[(3S)-3-fluoropyrrolidin-1-yl]-7H-pyrrolo[2,3-d]pyrimidin-5-yl}benzonitrile] | 0.03 | 0.155 |
| N#Cc1cccc(-c2c[nH]c3ncnc(N4CCCC4)c23)c1F [Example 184, 2-fluoro-3-[4-(pyrrolidin-1-yl)-7H-pyrrolo[2,3-d]pyrimidin-5-yl]benzonitrile] | 0.015 | 0.082 |
| CC1(C)CN(c2ncnc3[nH]cc(-c4cccc(C#N)c4)c23)CCO1 [Example 210, 3-[4-(2,2-dimethylmorpholin-4-yl)-7H-pyrrolo[2,3-d]pyrimidin-5-yl]benzonitrile] | 0.0352 | 0.304 |
| CN(C)c1ncnc2[nH]cc(-c3cccc(CO)c3)c12 [Example 10, {3-[4-(Dimethylamino)-7H-pyrrolo[2,3-d]pyrimidin-5-yl]phenyl}methanol] | 0.034 | 0.023 |
| CCn1cc(-c2c[nH]c3ncnc(N4CCOCC4)c23)cn1 [Example 148, 5-(1-ethyl-1H-pyrazol-4-yl)-4-(morpholin-4-yl)-7H-pyrrolo[2,3-d]pyrimidine] | 0.077 | 0.092 |
